Measurements reported in publication PMC7154665, “Triple‐Helix‐Stabilizing Effects in Collagen Model Peptides Containing PPII‐Helix‐Preorganized Diproline Modules” (Angewandte Chemie (International Ed. in English), 2020).

Key:
HSP47 = molecular target: T1, HSP47 (Canis lupus familiaris, UniProt A0A8I3N7V2); assay: HSP47 binding by biolayer interferometry (BLI); design: species or system canine; conditions: Table S7; BLI curve fitting; KD = koff/kon; errors by propagation of uncertainty; read-out: KD (with error)
T1 construct: coding for residues 36LSP…RDEL418; inferred from Ni-NTA purification with imidazole elution; made in house; host or cells: E. coli BL21 (DE3)
T1 sequence (A0A8I3N7V2 36-418): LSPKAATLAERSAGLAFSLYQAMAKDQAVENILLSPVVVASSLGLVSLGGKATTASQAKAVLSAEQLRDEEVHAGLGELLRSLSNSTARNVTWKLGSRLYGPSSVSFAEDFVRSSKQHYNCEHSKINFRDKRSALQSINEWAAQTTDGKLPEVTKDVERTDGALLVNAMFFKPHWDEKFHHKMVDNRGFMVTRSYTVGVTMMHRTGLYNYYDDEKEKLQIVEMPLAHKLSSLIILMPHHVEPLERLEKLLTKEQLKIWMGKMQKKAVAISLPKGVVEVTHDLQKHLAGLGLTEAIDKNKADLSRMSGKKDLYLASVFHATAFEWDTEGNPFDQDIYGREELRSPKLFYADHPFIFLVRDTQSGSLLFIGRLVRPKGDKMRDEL
From the text: (1 picture or pasted object on this page, not shown here) […]

[1] = CD thermal denaturation of collagen model peptide triple helices (transition temperature); format: physicochemical; conditions: for T m (figure legends and text) / T m of the corresponding CMPs: CD denaturation at 225 nm; for T m (figure legends and text): PBS-buffer, 12 °C h-1 heating rate, * substitution-site altered, ** arginine-free peptides; for T m of the corresponding CMPs: Table 2, CMP Ac‐(PPG)5‐PRG‐PPG‐[XY]G‐(PPG)3‐NH2, PBS, 12 °C h-1; for T m: triple-helix transition temperature, CD ellipticity at 225 nm, 60 µM peptide in PBS (10 mM Na2HPO4, 10 mM NaH2PO4, 150 mM NaCl, pH 7.0), 4 to 70 °C, heating rate 12 °C h-1, two-state fit, error ±1 °C
Description: For all prepared model peptides, CD spectra were recorded in phosphate‐buffered saline (after incubation for […] at 4 °C). […] The curves were fitted to assess triple‐helical stability by the transition temperature (T m, ±1 °C error) in a standardized fashion (see Table 1 and the Supporting Information). Selected denaturation curves are depicted in Figure 4.
CD spectra and Thermal Denaturation Experiments
Experimental setup - Vacuum-dried peptides were dissolved in phosphate-buffered saline (10 mM Na2HPO4, 10 mM NaH2PO4,
150 mM NaCl, pH = 7.0) and the solutions (60 µM peptide) were incubated at 4 °C for at least 48 h for trimerization. CD
measurements were performed on a Jasco J-715 spectropolarimeter using a quartz cuvette (Hellma Analytics, 1 mm path length) and
To study thermal transitions the ellipticity at 225 nm was monitored while increasing the temperature from 4 to
70 °C at a rather slow heating rate of 12 °C h-1 which was controlled electronically (Jasco PTC-348 WI Peltier element). According to
the literature this heating rate still corresponds to non-equilibrium conditions, however, the generated data can be used for internal
Data interpretation - For Tm-determination a two-state-model was employed in which three peptide chains combine to a triple helix
assuming a previously reported mathematical model (vide infra).[7][8] Constants were set (c = 0.00006, R = 8.31) and auxiliary
variables (P, U, V, K) were used to describe the temperature dependence of the folded fraction F. Thermal transition curves were
fitted by optimizing the parameters θmin, θmax, ΔH, and Tm using the Generalized Reduced Gradient algorithm implemented in the
solver tool of MS Excel.[9]. An error of ±1.0 °C was estimated for the resulting Tm values by repeating denaturation experiments.

Molecule	T m (figure legends and text) [1] [°C]	T m [1] [°C]	further results
N=C(N)NCCC[C@H](NC(=O)[C@@H]1CCCN1C(=O)CNC(=O)[C@@H]1CCCN1C(=O)[C@@H]1CCCN1C(=O)CNC(=O)[C@@H]1CCCN1C(=O)[C@@H]1CCCN1C(=O)CNC(=O)[C@@H]1CCCN1C(=O)[C@@H]1CCCN1C(=O)CNC(=O)[C@@H]1CCCN1C(=O)[C@@H]1CCCN1C(=O)CNC(=O)[C@@H]1CCCN1C(=O)[C@@H]1CCCN1C(=O)CCC(=O)NCCOCCOCCNC(=O)CCCC[C@@H]1SC[C@@H]2NC(=O)N[C@@H]21)C(=O)NCC(=O)N1CCC[C@H]1C(=O)N1CCC[C@H]1C(=O)NCC(=O)N1CCC[C@H]1C(=O)N1CCC[C@H]1C(=O)NCC(=O)N1CCC[C@H]1C(=O)N1CCC[C@H]1C(=O)NCC(=O)N1CCC[C@H]1C(=O)N1CCC[C@H]1C(=O)NCC(=O)N1CCC[C@H]1C(=O)N1CCC[C@H]1C(=O)NCC(N)=O [PP]	–	–	Kd (HSP47): 370.3 ± 1.8 nM
COC(=O)[C@@H]1CC(O)CN1C(=O)[C@@H]1CCCN1C(C)=O (stereo partly drawn) [ProHyp]	49.8	–	T m of the corresponding CMPs [1]: 49.8 °C
Ac-PPG-PPG-PPG-PPG-PPG-PPG-PPG-PPG-PPG-PPG-PPG-NH2 [ProPro**]	45.9	–	–
Ac-PPG-PPG-PPG-PPG-PPG-PPG-PPG-[H2ProM2]G-PPG-PPG-PPG-NH2 [H2-ProM2**]	44.4	–	–
Ac-PPG-PPG-PPG-PPG-PPG-PRG-PPG-OOG-PPG-PPG-PPG-NH2 [HypHyp]	46.9	–	–
Ac‐(EtO)2‐ProM2‐OMe	–	–	T m of the corresponding CMPs [1]: 38.9 °C; ΔT m ([1]; with regard to the non‐functionalized system (ProM2 series)): −6 °C
Ac‐(PPG)5‐PRG‐PPG‐(EtO)2‐ProM1G‐(PPG)3‐NH2 [Entry 8]	44.5	44.5	–
Ac‐(PPG)5‐PRG‐PPG‐(MeO)2‐ProM1G‐(PPG)3‐NH2 [Entry 7]	43.6	43.6	–
Ac‐(PPG)5‐PRG‐PPG‐HO‐ProM1G‐(PPG)3‐NH2 [Entry 5]	43.0	43.0	–

The next lines start with results.

T m (figure legends and text) [1] [°C]	T m [1] [°C]	Molecule	further results
44.0	–	Ac-PPG-PPG-PPG-PPG-PPG-PRG-PPG-OPG-PPG-PPG-PPG-NH2 [HypPro]	–
44	–	Ac‐(EtO)2‐ProM1‐OMe	T m of the corresponding CMPs [1]: 44.5 °C
–	44.6	Ac‐(PPG)3‐H2‐ProM2G‐PPG‐PRG‐(PPG)5‐NH2 [Entry 15]	–
–	40.5	Ac‐(PPG)3‐ProM1G‐PPG‐PRG‐(PPG)5‐NH2 [Entry 14]	–
38.9	38.9	Ac‐(PPG)5‐PRG‐PPG‐(EtO)2‐ProM2G‐(PPG)3‐NH2 [Entry 13]	–
37.9	37.9	Ac‐(PPG)5‐PRG‐PPG‐(HO)2‐ProM2G‐(PPG)3‐NH2 [Entry 11]	–
40.2	40.2	Ac‐(PPG)5‐PRG‐PPG‐(MeO)2‐ProM2G‐(PPG)3‐NH2 [Entry 12]	–
–	49.8	Ac‐(PPG)5‐PRG‐PPG‐ProHypG‐(PPG)3‐NH2 [Entry 2]	–
–	39.3	Ac‐(PPG)5‐PRG‐PPG‐ProM1G‐(PPG)3‐NH2 [Entry 3]	–
39.3	–	Ac‐ProM1‐OMe	T m of the corresponding CMPs [1]: 39.3 °C; ΔT m ([1]; in comparison to reference peptide Ac‐(PPG)5‐PRG‐(PPG)5‐NH2): −6 °C
